Columns and labels:
[1] = test system: thermostable L-ribose isomerase from Raoultella ornithinolytica; experiment: Confirmation of enzyme reaction product by HPLC; type: biochemical; conditions: 50 mM substrate, crude enzyme solution, 40° C., 24 hours
Method: A crude enzyme solution (0.65 U/ml) was recovered after culturing in a culture medium with 0.1% D-lyxose in 2% TSB, at 37° C. for 2 days and ultrasonication for extraction; 150 μl of the crude enzyme solution reacted with 50 mM of a substrate including individual ketose types such as L-ribose, D-fructose, D-tagatose and L-psicose at 40° C. for 24 hours. After reaction, the enzyme was inactivated under heating in hot water for 2 minutes, and centrifuged at 12,000 rpm for 5 minutes to recover the supernatant. Then, about 2 spoonfuls of a desalted resin (mixed and dried at a ratio of IRA411:SKIB=2:1) in a microspatula were added to the resulting supernatant, for mixing under inversion. After one hour, the solution was filtered through a 0.45-μm filter, for high-performance liquid chromatography (HPLC). As the column, Hitachi HPLC column GL-C611 (manufactured by Hitachi Chemical Industry Co., Ltd.) was used; as the detector, a differential refractive meter (L-7490 refractive index detector manufactured by Hitachi Hightech Co., Ltd.) was used. While the column was retained at 60° C., 10^−4 M sodium hydroxide solution as an eluent was used at a flow rate of 1.0 mL/min. The resulting signals were collected and analyzed with a data analysis software (SmartChrom, manufactured by KYA Technologies Co., Ltd.).

[2] = test system: thermostable L-ribose isomerase derived from Raoultella ornithinolytica; experiment: L-ribose isomerase activity assay on various aldose substrates (cysteine/carbazole method); type: biochemical; conditions: aldose as substrate; for relative activity to the activity on L-ribose: activity on L-ribose designated as 100%
Method: The activity of the L-ribose isomerase of the invention can be assayed as follows. 0.05 ml of 0.05 M glycine-NaOH buffer (pH 9.0), 0.05 ml of 0.05 M L-ribose and the enzyme solution were mixed together to a total volume of 0.5 ml, for the enzyme reaction at 45° C., to generate L-ribulose, which is assayed by the cysteine/carbazole method. One unit of the enzyme activity is designated as the enzyme amount to generate 1 μmol of L-ribulose per one minute.
Using 50 mM L-ribose as a substrate, the enzyme reaction continued at 45° C. for 10 minutes, so that the amount of the generated ketose (L-ribulose) was assayed by the cysteine/carbazole method. As to the temperature stability, the enzyme activity was assayed after 10-min treatment at individual temperatures. As to the optimal pH conditions, the enzyme reaction was performed at 45° C. for 10 minutes in 50 mM acetate buffer (pH 2 to 6), 50 mM sodium phosphate buffer (pH 6 to 8), 50 mM Tris-HCl buffer (pH 8 to 9) or 50 mM glycine-sodium hydroxide buffer (pH 9 to 11), using 50 mM L-ribose as substrate, to assay the amount of a ketose (L-ribulose) generated thereafter by the cysteine/carbazole method (Table 2). The enzyme reaction was done at the composition shown in Table 2 at 45° C. for 10 minutes (Table 3), and the reaction was terminated by adding 50 μl of 10% TCA (trichloroacetic acid). […] After completion of the reaction, absorbance at 540 nm was measured with an ultraviolet/visible spectrophotometer V530 (JASCO Corporation). Additionally, the amount of the enzyme generating 1 μmol L-ribulose per one minute was designated as one unit.
According to the assay method of the activity, the activity of the enzyme was assayed, using various aldose types as substrates. The activities on various aldose types are shown in relative activities to the activity on L-ribose, which is designated as 100%.

product generated from the substrate [1] | activity of the enzyme for the substrate (in words) [2] | relative activity to the activity on L-ribose [2] | SMILES
L-allose is generated |  |  | O=C(CO)[C@@H](O)[C@@H](O)[C@@H](O)CO [L-psicose]
 | never exerts any activities |  | O=C[C@H](O)[C@@H](O)[C@H](O)[C@H](O)CO [D-glucose]
L-ribulose is generated | highest activity | 100% | O=C[C@@H](O)[C@@H](O)[C@@H](O)CO [L-ribose]
 | exerted activities | 56.9% | O=C[C@@H](O)[C@@H](O)[C@@H](O)[C@H](O)CO [D-tallose]
 | exerted activities |  | O=C[C@@H](O)[C@@H](O)[C@H](O)[C@H](O)CO [D-mannose]
 | exerted activities | 15.3% | O=C[C@@H](O)[C@@H](O)[C@H](O)CO [D-lyxose]
 | never exerts any activities |  | O=C[C@H](O)[C@H](O)[C@H](O)[C@H](O)CO [D-allose]
D-tallose is generated |  |  | O=C(CO)[C@@H](O)[C@@H](O)[C@H](O)CO [D-tagatose]
D-mannose is generated |  |  | O=C(CO)[C@@H](O)[C@H](O)[C@H](O)CO [D-fructose]
 | exerted activities | 2.2% | O=C[C@@H](O)[C@@H](O)[C@@H](O)[C@@H](O)CO [L-allose]
 | never exerts any activities |  | O=C[C@@H](O)[C@H](O)[C@H](O)[C@H](O)CO [D-altrose]

— patent publication US8227232B2, “Thermostable L-ribose isomerase and method for producing same and use of same” (National University Corporation Kagawa Univeristy, priority 2006, dated 2012)
